In paper PMC3591457, “Biodistribution and Elimination Study of Fluorine-18 Labeled N^ε-Carboxymethyl-Lysine following Intragastric and Intravenous Administration” (PLoS ONE, 2013):

Tests used:
[1] = Biodistribution after intragastric administration; format: in vivo, ICR mice; conditions: for Uptake in bladder, percentage of injected dose per whole tissue / Uptake in brain, percentage of injected dose per whole tissue / Uptake in heart, percentage of injected dose per whole tissue / Uptake in intestines, percentage of injected dose per whole tissue / Uptake in kidneys, percentage of injected dose per whole tissue / Uptake in liver, percentage of injected dose per whole tissue / Uptake in lungs, percentage of injected dose per whole tissue / Uptake in muscles, percentage of injected dose per whole tissue / Uptake in pancreas, percentage of injected dose per whole tissue / Uptake in stomach, percentage of injected dose per whole tissue: intragastric administration, n=3, mean ± SD
Method: (§1) The biodistribution of ^18F-CML was studied in eighteen young male ICR mice with a weight range of 18–20 g. Nine mice were used for intravenous administration and the other nine mice were used for intragastric administration.
(§2) For intravenous administration, ^18F-CML was injected into a lateral tail vein of the animals under light ether anesthesia. The injection volume (2–3 MBq; radiochemical purity 96%) was 0.1 mL. For intragastric administration, 1.5 MBq of ^18F-labeled CML was given via gastrointestinal tract tract.
(§3) The mice were sacrificed at 5, 60, and 120 min after administration of ^18F-CML (three mice at each time point). The animals were sacrificed by heart puncture under ether anaesthesia. The tissues and organs of interest were isolated and counted in a well-type γ counter. Additionally, 200 µL of blood was taken from the carotid artery. The distributions of ^18F-CML in different tissues and organs were calculated and expressed as the percent uptake of the injection dose per whole tissue (% ID).

RAW264.7 cells = assay: Cell uptake of ^18F-CML and native CML in RAW264.7 cells; format: cell-based; conditions: n=3, P<0.01, blocking with non-radioactive CML
Method: To compare the different bioactivities of CML and ^18F-CML, two cell lines were evaluated for their capacity to take up native CML and the fluorobenzoylated derivative ^18F-CML. RAW264.7 macrophages and HepG2 liver cells were cultured in DMEM/LOWGLUCOSE, supplemented with 10% fetal bovine serum (FBS), 4.0 mmol/L L-glutamine, 110 mg/L sodium pyruvate, 100 U/mL penicillin, and 100 mg/L streptomycin at 37°C and 5% CO2.
For ^18F-CML cell uptake studies, RAW264.7 cells and HepG2 cells were seeded into 24-well plates at a density of 4×10^5 cells per well. Radio-tracer ^18F-CML (0.5 µCi/well, 3 µmol/mL) was incubated in a 37°C water bath for 15, 30, 60, and 120 min. At each time point the cells were washed 3 times with phosphate-buffered saline (PBS). The supernatant, washing-up liquid (unbound activity) and the pellet (cell-bound activity) were transferred to new tubes. Triplicates of the counting tubes containing supernatant and cell pellet were counted individually using a gamma counter for 1 min. For the blocking experiment, the uptake was carried out in the presence of the non-radioactive CML(10 µmol/mL) and processed similarly as described above. The uptake (%) of radio-tracer into the cell was determined using a gamma counter according to the following equation: [drawing 1]
For CML cell uptake ratio studies, unaltered CML (10 µmol/mL) was added to RAW264.7 and HepG2 cell pellets individually. The total proteins of each cell line were initially extracted from the lysates of 4×10^5 cells. […] The supernatants were purified and detected usingby the method described by Drusch et al., which uses an RP-HPLC method with an ortho-phthaldialdehyde (OPA)-derivatisation and fluorescence detection suited for automation. The HPLC analysis method used a 250 mm×4.6 mm C18 column (GROM-SIL 100 ODS-0 AB, Herrenberg, Germany) and detected the fluorescence excitation at 340 nm and emission at 455 nm. The peak identification of CML was confirmed by the retention time and standard addition and was quantified using an external standard. The amount of CML was calculated and expressed as a percentage.

[2] = microPET imaging after intravenous administration; format: in vivo, ICR mice; conditions: after intravenous injection
Method: After adjusting the animal board position, 0.15 mL of an ^18F-CML solution was administered intravenously via the tail vein. The solution of ^18F-CML was prepared just prior to the intravenous administration. The dose of ^18F-CML was adjusted to approximately 80 µCi per mouse (n = 4), and the pH of the solution was adjusted to 7.4. Here, the specific activity corresponded to 3 MBq/nmol. Dynamic PET images were acquired continuously for 2 hours.
Dynamic PET studies were performed using a dedicated microPET scanner for small animals. For imaging studies, the animals were under isoflurane anesthesia and then positioned and immobilized supine with their medial axis parallel to the axial axis of the scanner with the thorax and abdominal region (organs of interest: heart, liver, and kidneys) in the center of the field of view.
Approximately 5 min was needed to set the position of the animals after intragastric or intravenous administration of the drug solution containing ^18F-CML. Then, the emission data were acquired for 120 min. An attenuation map was created for each mouse by intravenously administering the residual ^18F-CML after acquisition of the emission data. The acquired data were sorted into dynamic sinograms. […] The quantitative analyses of the hepatic and renal distributions of ^18F-CML were performed using ASIPro installed in the PET system.

[3] = Biodistribution after intravenous administration; format: in vivo, ICR mice
Method: as §1, §2, §3

Uptake in bladder, percentage of injected dose per whole tissue ([1]; 5 min): 5.20±1.68 %ID
Uptake in brain, percentage of injected dose per whole tissue ([1]; 5 min): 1.04±0.02 %ID
Uptake in heart, percentage of injected dose per whole tissue ([1]; 5 min): 1.05±0.25 %ID
Uptake in intestines, percentage of injected dose per whole tissue ([1]; 5 min): 9.91±1.36 %ID
Uptake in kidneys, percentage of injected dose per whole tissue ([1]; 5 min): 2.20±0.95 %ID
Uptake in liver, percentage of injected dose per whole tissue ([1]; 5 min): 1.17±0.45 %ID
Uptake in lungs, percentage of injected dose per whole tissue ([1]; 5 min): 0.35±0.19 %ID
Uptake in muscles, percentage of injected dose per whole tissue ([1]; 5 min): 1.76±0.53 %ID
Uptake in pancreas, percentage of injected dose per whole tissue ([1]; 5 min): 0.2±0.01 %ID
Uptake in stomach, percentage of injected dose per whole tissue ([1]; 5 min): 76.85±7.01 %ID
Uptake in bladder, percentage of injected dose per whole tissue ([1]; 60 min): 12.21±1.62 %ID
Uptake in brain, percentage of injected dose per whole tissue ([1]; 60 min): 0.31±0.03 %ID
Uptake in heart, percentage of injected dose per whole tissue ([1]; 60 min): 0.75±0.52 %ID
Uptake in intestines, percentage of injected dose per whole tissue ([1]; 60 min): 52.29±8.71 %ID
Uptake in kidneys, percentage of injected dose per whole tissue ([1]; 60 min): 3.31±1.91 %ID
Uptake in liver, percentage of injected dose per whole tissue ([1]; 60 min): 1.0±0.12 %ID
Uptake in lungs, percentage of injected dose per whole tissue ([1]; 60 min): 0.51±0.11 %ID
Uptake in muscles, percentage of injected dose per whole tissue ([1]; 60 min): 2.16±1.82 %ID
Uptake in pancreas, percentage of injected dose per whole tissue ([1]; 60 min): 0.32±0.02 %ID
Uptake in stomach, percentage of injected dose per whole tissue ([1]; 60 min): 29.73±3.91 %ID
Uptake in bladder, percentage of injected dose per whole tissue ([1]; 120 min): 29.59±3.7 %ID
Uptake in brain, percentage of injected dose per whole tissue ([1]; 120 min): 0.02±0.01 %ID
Uptake in heart, percentage of injected dose per whole tissue ([1]; 120 min): 0.29±0.59 %ID
Uptake in intestines, percentage of injected dose per whole tissue ([1]; 120 min): 48.32±5.2 %ID
Uptake in kidneys, percentage of injected dose per whole tissue ([1]; 120 min): 2.1±0.29 %ID
Uptake in liver, percentage of injected dose per whole tissue ([1]; 120 min): 0.29±0.05 %ID
Uptake in lungs, percentage of injected dose per whole tissue ([1]; 120 min): 0.23±0.05 %ID
Uptake in muscles, percentage of injected dose per whole tissue ([1]; 120 min): 1.11±1.78 %ID
Uptake in pancreas, percentage of injected dose per whole tissue ([1]; 120 min): 0.05±0.00 %ID
Uptake in stomach, percentage of injected dose per whole tissue ([1]; 120 min): 17.87±2.1 %ID
Accumulation of radioactivity in the gastrointestinal tract ([1]; intragastric, 60 min): approximately 82 % ID
Fraction excreted in the urine ([1]; intragastric, 60 min): 12 % ID
Blood uptake ([1]; intragastric, 120 min, percentage of wet tissue): 0.95±0.09 % ID
Duration of continued accumulation of radioactivity in the kidneys (PET) [2]: approximately 60 min
Radioactivity in stomach, lungs, liver and intestines taken together, of the total injected dose ([3]; intravenous): less than 10%
Uptake in bladder, percentage of injected dose per whole tissue ([3]; intravenous administration, 5 min, n=3, mean ± SD): 26.50±1.70 %ID
SMILES: O=C(O)CNCCCCC(NC(=O)c1ccc([18F])cc1)C(=O)O (stereo not shown) [^18F-CML]
Uptake of radioactivity in untreated cells relative to unlabelled CML-treated (blocked) cells (RAW264.7 cells): 1.8 fold
